Data as given in patent US6410581B1, “Disubstituted biphenyloxazolines” (Bayer Aktiengesellschaft, priority 1997, dated 2002).

Experiment: log p, n-octanol/water partition coefficient by reverse phase HPLC (H2O/CH3CN)
Format: physicochemical
Details: n-octanol/water, pH 2.3

Row | chromatographic logP | SMILES
1 | 4.16 | CCOC(=O)Oc1ccc(-c2ccccc2)cc1Cl [(2-Chloro-4-phenyl-phenyl) ethyl carbonate]
2 | 4.04 | CCOC(=O)Oc1ccc(-c2ccccc2)cc1C [(2-Methyl-4-phenyl-phenyl) ethyl carbonate]
3 | 4.76 | CCCc1cc(-c2ccccc2)ccc1OC(=O)OCC [(4-phenyl-2-propyl-phenyl) ethyl carbonate]

Row | SMILES | chromatographic logP
4 | CCc1cc(-c2ccccc2)ccc1OC(C)=O [4-acetoxy-3-ethyl-biphenyl] | 3.92
5 | CCCc1cc(-c2ccccc2)ccc1OC(C)=O [4-acetoxy-3-propyl-biphenyl] | 4.32

Same assay, conditions: n-octanol/water, pH 7.5

Row | chromatographic logP | SMILES
6 | 4.65 | CCOC(=O)Oc1c(Cl)cc(-c2ccccc2)cc1Cl [(2,6-dichloro-4-phenyl-phenyl) ethyl carbonate]

Same assay, conditions: pH 7.5

Row | SMILES | log p
7 | CCC(C)Oc1ccc(-c2ccc(C3COC(c4c(F)cccc4F)=N3)cc2)cc1C (centres unmarked) [Example I-7] | log p*: 5.60 (pH = 7.5)
8 | CCCc1cc(-c2ccc(C3COC(c4ccccc4C)=N3)cc2)ccc1OC(C)CC (centres unmarked) [Example I-9] | log p: 7.28 (pH = 7.5)
9 | CCCc1cc(-c2ccc(C3COC(c4c(F)cccc4F)=N3)cc2)ccc1OC(C)CC (centres unmarked) [Example I-10] | log p: 6.33 (pH = 7.5)
10 | Cc1cc(-c2ccc(C3COC(c4ccccc4Cl)=N3)cc2)ccc1OC(C)C (centres unmarked) [Example I-12] | log p: 5.56 (pH = 7.5)
11 | Cc1cc(-c2ccc(C3COC(c4ccccc4Br)=N3)cc2)ccc1OC(C)C (centres unmarked) [Example I-14] | log p: 5.63 (pH = 7.5)
12 | CCC(C)Oc1ccc(-c2ccc(C3COC(c4ccccc4Br)=N3)cc2)cc1C (centres unmarked) [Example I-16] | log p: 6.12 (pH = 7.5)
13 | CC(C)Oc1ccc(-c2ccc(C3COC(c4ccccc4F)=N3)cc2)cc1Cl (centres unmarked) [Example I-32] | log p (pH 7.5): 5.04
14 | CC(C)COc1ccc(-c2ccc(C3COC(c4ccccc4Cl)=N3)cc2)cc1Cl (centres unmarked) [Example I-34] | log p (pH 7.5): 6.03
15 | CCCc1cc(-c2ccc(C3COC(c4ccccc4Cl)=N3)cc2)ccc1OC(C)C (centres unmarked) [Example I-36] | log p: 6.35 (pH 7.5)
16 | CCCc1cc(-c2ccc(C3COC(c4ccccc4Cl)=N3)cc2)ccc1OCC(C)C (centres unmarked) [Example I-37] | log p: 6.95 (pH 7.5)
17 | CCCc1cc(-c2ccc(C3COC(c4ccccc4Cl)=N3)cc2)ccc1OCC(C)O (centres unmarked) [Example I-39] | log p: 4.47 (pH 7.5)
18 | CCCc1cc(-c2ccc(C3COC(c4ccccc4Br)=N3)cc2)ccc1OC(C)C (centres unmarked) [Example I-40] | log p: 6.40 (pH 7.5)
19 | Cc1cc(-c2ccc(C3COC(c4c(F)cccc4F)=N3)cc2)cc(C)c1OC(C)C (centres unmarked) [Example I-44] | log p: 5.23 (pH 7.5)
20 | CCCc1cc(-c2ccc(C3COC(c4ccccc4C)=N3)cc2)ccc1OC(C)C (centres unmarked) [Example I-52] | log p: 6.78 (pH 7.5)
21 | C=CCOc1ccc(-c2ccc(C3COC(c4ccccc4C)=N3)cc2)cc1C (centres unmarked) [Example I-55] | log p: 5.64 (pH 7.5)
22 | CCCc1cc(-c2ccc(C3COC(c4ccccc4I)=N3)cc2)ccc1OC(C)C (centres unmarked) [Example I-57] | log p: 6.59 (pH 7.5)
23 | C=CCc1cc(-c2ccc(C3COC(c4c(F)cccc4F)=N3)cc2)ccc1OC(C)CC (centres unmarked) [Example I-59] | log p: 5.95 (pH 7.5)

Row | SMILES | log p
24 | CCCc1cc(-c2ccc(C3COC(c4c(F)cccc4F)=N3)cc2)ccc1OCc1ccc(C(C)(C)C)cc1 (centres unmarked) [Example I-60] | log p: 7.14 (pH 7.5)
25 | CCc1cc(-c2ccc(C3COC(c4c(F)cccc4F)=N3)cc2)ccc1OC(C)C (centres unmarked) [Example I-63] | log p: 5.54 (pH 7.5)
26 | CCCc1cc(-c2ccc(C3COC(c4ccccc4C)=N3)cc2)ccc1OCC(C)C (centres unmarked) [Example I-64] | log p: 4.48 (pH 7.5)
27 | Cc1cc(-c2ccc(C3COC(c4ccccc4I)=N3)cc2)ccc1OC(C)C (centres unmarked) [Example I-67] | log p: 5.81 (pH 7.5)
28 | Cc1cc(-c2ccc(C3COC(c4ccccc4C)=N3)cc2)ccc1OC(C)C (centres unmarked) [Example I-70] | log p: 6.02 (pH 7.5)
29 | CC(C)Oc1ccc(-c2ccc(C3COC(c4c(F)cccc4Cl)=N3)cc2)cc1Cl (centres unmarked) [Example I-71] | log p: 5.25 (pH 7.5)
30 | CCC(C)Oc1ccc(-c2ccc(C3COC(c4c(F)cccc4Cl)=N3)cc2)cc1Cl (centres unmarked) [Example I-76] | log p: 5.69 (pH 7.5)
31 | CC(C)COc1ccc(-c2ccc(C3COC(c4c(F)cccc4Cl)=N3)cc2)cc1Cl (centres unmarked) [Example I-77] | log p: 5.89 (pH 7.5)
32 | C=CCOc1ccc(-c2ccc(C3COC(c4c(F)cccc4Cl)=N3)cc2)cc1Cl (centres unmarked) [Example I-80] | log p: 4.99 (pH 7.5)
33 | CCCCCCOc1ccc(-c2ccc(C3COC(c4c(F)cccc4Cl)=N3)cc2)cc1Cl (centres unmarked) [Example I-83] | log p: 6.68 (pH 7.5)
34 | CCCc1cc(-c2ccc(C3COC(c4c(F)cccc4Cl)=N3)cc2)ccc1OC(C)C (centres unmarked) [Example I-85] | log p: 6.20 (pH 7.5)
35 | CCCc1cc(-c2ccc(C3COC(c4c(F)cccc4Cl)=N3)cc2)ccc1OC(C)CC (centres unmarked) [Example I-86] | log p: 6.62 (pH 7.5)
36 | CCCOc1ccc(-c2ccc(C3COC(c4ccccc4F)=N3)cc2)cc1Cl (centres unmarked) [Example I-87] | log p: 5.22 (pH 7.5)
37 | CCC(C)Oc1ccc(-c2ccc(C3COC(c4ccccc4F)=N3)cc2)cc1Cl (centres unmarked) [Example I-89] | log p: 5.49 (pH 7.5)
38 | CC(C)COc1ccc(-c2ccc(C3COC(c4ccccc4F)=N3)cc2)cc1Cl (centres unmarked) [Example I-90] | log p: 5.70 (pH 7.5)
39 | CCCCCCOc1ccc(-c2ccc(C3COC(c4ccccc4F)=N3)cc2)cc1Cl (centres unmarked) [Example I-96] | log p: 6.48 (pH 7.5)
40 | CCCc1cc(-c2ccc(C3COC(c4c(F)cccc4Cl)=N3)cc2)ccc1OCC(C)C (centres unmarked) [Example I-104] | log p: 6.82 (pH 7.5)

More lines, now with the values ahead:

Row | log p | SMILES
41 | log p: 6.39 | C=CCc1cc(-c2ccc(C3COC(c4c(F)cccc4F)=N3)cc2)cc(CC=C)c1OC(C)CC (centres unmarked) [Example I-139]
42 | log p: 6.75 (pH 7.5) | C=CCc1cc(-c2ccc(C3COC(c4ccccc4C)=N3)cc2)cc(Cl)c1OC(C)C (centres unmarked) [Example I-146]
43 | log p: 5.47 (pH 7.5) | C=CCOc1ccc(-c2ccc(C3COC(c4ccccc4C)=N3)cc2)cc1Cl (centres unmarked) [Example I-155]
44 | log p: 4.81 (pH 7.5) | C#CCOc1ccc(-c2ccc(C3COC(c4ccccc4C)=N3)cc2)cc1Cl (centres unmarked) [Example I-156]
45 | log p: 5.45 | Cc1cc(-c2ccc(C3COC(c4c(F)cccc4Cl)=N3)cc2)ccc1OC(C)C (centres unmarked) [Example I-163]
46 | log p: 5.93 | CCC(C)Oc1ccc(-c2ccc(C3COC(c4c(F)cccc4Cl)=N3)cc2)cc1C (centres unmarked) [Example I-165]
47 | log p: 5.98 | C=CCc1cc(-c2ccc(C3COC(c4c(F)cccc4Cl)=N3)cc2)ccc1OCCC (centres unmarked) [Example I-176]
48 | log p: 5.82 | C=CCc1cc(-c2ccc(C3COC(c4c(F)cccc4Cl)=N3)cc2)ccc1OC(C)C (centres unmarked) [Example I-177]
49 | log p: 6.47 | C=CCc1cc(-c2ccc(C3COC(c4c(F)cccc4Cl)=N3)cc2)ccc1OCC(C)C (centres unmarked) [Example I-178]
50 | log p: 6.33 | C=CCc1cc(-c2ccc(C3COC(c4c(F)cccc4Cl)=N3)cc2)ccc1OC(C)CC (centres unmarked) [Example I-179]
51 | log p: 5.49 | C=CCOc1ccc(-c2ccc(C3COC(c4c(F)cccc4Cl)=N3)cc2)cc1CC=C (centres unmarked) [Example I-181]
52 | log p: 4.81 | C#CCOc1ccc(-c2ccc(C3COC(c4c(F)cccc4Cl)=N3)cc2)cc1CC=C (centres unmarked) [Example I-182]
53 | log p: 5.23 | Cc1cc(-c2ccc(C3COC(c4ccccc4F)=N3)cc2)ccc1OC(C)C (centres unmarked) [Example I-190]
54 | log p: 5.89 | Cc1cc(-c2ccc(C3COC(c4ccccc4F)=N3)cc2)ccc1OCC(C)C (centres unmarked) [Example I-191]
55 | log p: 5.70 | CCC(C)Oc1ccc(-c2ccc(C3COC(c4ccccc4F)=N3)cc2)cc1C (centres unmarked) [Example I-192]
56 | log p: 4.68 | C#CC(C)Oc1ccc(-c2ccc(C3COC(c4ccccc4F)=N3)cc2)cc1C (centres unmarked) [Example I-196]
57 | log p: 6.03 | CCCc1cc(-c2ccc(C3COC(c4ccccc4F)=N3)cc2)ccc1OC(C)C (centres unmarked) [Example I-202]

Row | log p | SMILES
58 | log p: 6.61 | CCCc1cc(-c2ccc(C3COC(c4ccccc4F)=N3)cc2)ccc1OCC(C)C (centres unmarked) [Example I-204]
59 | log p: 5.32 | C#CC(C)Oc1ccc(-c2ccc(C3COC(c4ccccc4F)=N3)cc2)cc1CCC (centres unmarked) [Example I-209]
60 | log p: 5.22 | CCCOc1ccc(-c2ccc(C3COC(c4ccccc4F)=N3)cc2)cc1Cl (centres unmarked) [Example I-216]
61 | log p: 5.70 | CC(C)COc1ccc(-c2ccc(C3COC(c4ccccc4F)=N3)cc2)cc1Cl (centres unmarked) [Example I-217]
62 | log p: 5.49 | CCC(C)Oc1ccc(-c2ccc(C3COC(c4ccccc4F)=N3)cc2)cc1Cl (centres unmarked) [Example I-218]
63 | log p: 6.48 | CCCCCCOc1ccc(-c2ccc(C3COC(c4ccccc4F)=N3)cc2)cc1Cl (centres unmarked) [Example I-219]
64 | log p: 4.16 | C#CCOc1ccc(-c2ccc(C3COC(c4ccccc4F)=N3)cc2)cc1Cl (centres unmarked) [Example I-221]
65 | log p: 4.58 | C#CC(C)Oc1ccc(-c2ccc(C3COC(c4ccccc4F)=N3)cc2)cc1Cl (centres unmarked) [Example I-222]
66 | log p: 5.56 | Cc1cc(-c2ccc(C3COC(c4ccccc4Cl)=N3)cc2)ccc1OC(C)C (centres unmarked) [Example I-229]
67 | log p: 6.35 | CCCc1cc(-c2ccc(C3COC(c4ccccc4Cl)=N3)cc2)ccc1OC(C)C (centres unmarked) [Example I-240]
68 | log p: 5.93 | C=CCc1cc(-c2ccc(C3COC(c4ccccc4Cl)=N3)cc2)ccc1OC(C)C (centres unmarked) [Example I-250]
69 | log p: 6.52 | C=CCc1cc(-c2ccc(C3COC(c4ccccc4Cl)=N3)cc2)ccc1OCC(C)C (centres unmarked) [Example I-251]
70 | log p: 6.35 | C=CCc1cc(-c2ccc(C3COC(c4ccccc4Br)=N3)cc2)cc(Cl)c1OC(C)C (centres unmarked) [Example I-281]
71 | log p: 7.36 | C=CCc1cc(-c2ccc(C3COC(c4ccccc4Br)=N3)cc2)cc(Cl)c1OCCCCCC (centres unmarked) [Example I-282]
72 | log p: 6.05 | C=CCOc1c(Cl)cc(-c2ccc(C3COC(c4ccccc4Br)=N3)cc2)cc1CC=C (centres unmarked) [Example I-283]
73 | log p: 5.37 | C#CCOc1c(Cl)cc(-c2ccc(C3COC(c4ccccc4Br)=N3)cc2)cc1CC=C (centres unmarked) [Example I-284]

Same assay, conditions: pH not given

Row | log p | SMILES
74 | log p: 6.47 | CCCc1cc(-c2ccc(C3COC(c4ccccc4F)=N3)cc2)ccc1OC(C)CC (centres unmarked) [Example I-205]
